Test results reported in patent US10130624B2, “Pharmaceutical compositions of amlodipine and benazepril” (LUPIN LIMITED, priority 2005, dated 2018).

Assay: Preformulation compatibility study: amlodipine and benazepril blends, with or without excipients, at accelerated stability conditions; colour change and degradation products by HPLC
Format: physicochemical
Conditions: without any excipients
Description: The studies were carried out by blending amlodipine & benazepril and then mixing with excipients in amounts intended to be used in the proposed compositions. For example, amlodipine:benazepril:diluent were blended in the ratio 0.7:1:10, amlodipine:benazepril:disintegrant were blended in the ratio 0.7:1:2, amlodipine:benazepril:binder were blended in the ratio 0.7:1:2, and amlodipine:benazepril:lubricant were blended in the ratio 0.7:1:0.5.

- Related substances: Amlodipine impurity D (Initial): 0.000%
- Related substances: Benazepril impurity C (Initial): 0.130%
- Related substances: Benazepril impurity G (Initial): 0.060%
- Related substances: Total impurities (Initial): 0.260%
- Related substances: Amlodipine impurity D (charged on stability, 3M): 0.000%
- Related substances: Benazepril impurity C (charged on stability, 3M): 0.143%
- Related substances: Benazepril impurity G (charged on stability, 3M): 0.000%
- Related substances: Total impurities (charged on stability, 3M): 0.267%
Structure (SMILES): CCOC(=O)[C@H](CCc1ccccc1)N[C@H]1CCc2ccccc2N(CC(=O)O)C1=O [Benazepril alone, Benazepril]
